# According to patent US20240002441A1, “PEPTIDES AND USES THEREOF IN MODULATION OF AMYLOID-BETA PROTEIN DEGRADING PROTEASES” (priority 2020, published 2024):
# How the values were obtained:
# [1] = tested on: STZ diabetic mouse model; experiment: STZ diabetic mouse model, kidney inflammation and fibrosis, ND and STZ mice (Example 14); type: in vivo; conditions: for post treatment blood glucose compared with vehicle: 1 mg/kg s.c. osmotic minipump
# Description: Mice were divided into four groups, two groups of mice remained untreated (ND) and two groups of mice were treated with STZ (150 mg/kg) by i.p. injection 1 week before starting treatment with SEQ ID NO. 2 or vehicle. Before treatment with SEQ ID NO. 2 or vehicle began, one week post STZ administration, 24 hour urine and blood samples were taken and blood glucose was assessed in all mice. The two ND groups and the two STZ treatment groups were then treated with either vehicle (10% DMSO/PBS) only or SEQ ID NO: 2 (1 mg/kg) subcutaneously by osmotic minipump. The mice were then monitored for 3 months before sacrifice. Monitoring included assessing the weight of each animal every day, taking blood samples biweekly and 24 hour urine samples at 1, 2 and 3 months post treatment. 24 hour urine samples were collected from mice placed in metabolic cages. At 3 months after treatment, a blood sample was collected (cardiac bleed) and the animals were sacrificed. Kidney and heart tissues were collected and weight and the tissues processed for in vitro analysis.
# Urine samples were analysed for urinary albumin ELISA. The volume of urine was measured and then samples were diluted by 1:8000 with water. The samples were incubated for 1 h in antibody-coated 96-well plates (in duplicate). After incubation, a Development solution (100 μL) containing sandwich antibody was added to the wells and the samples incubated for 10 minutes in the dark. Stop solution (100 μL) was added and the optical density was measured at 450 nm.
# The kidney tissue samples were analysed for fibrosis using Masson's trichrome staining. 4 μm-thick paraffin-embedded kidneys were sectioned. After dewaxing, sections were post-fixed in Bouin's fixative overnight. The slides were stained in Weigert's iron haematoxylin followed by Biebrich scarlet-acid fuchsin solution. The slides were differentiated in phosphomolybdic-phosphotungstic acid solution and then further stained in aniline blue solution. After differentiation in 1% acetic acid solution the slides were mounted with mounting medium and the sections were imaged on an Aperio Slide Scanner at ×20 magnification. The images were analysed on ImageJ.
# Kidney samples in mice sacrificed one month after treatment were also analysed for the presence of IL-6 by western blot analysis. Homogenised kidney samples were heat-denatured and separated using SDS-PAGE. The membranes were incubated with IL-6 primary antibody at 1:500 dilution, followed by incubation with a secondary antibody (goad anti-rabbit antibody at 1:16000) and developed the following day using enhanced chemiluminescence (ECL) as a substrate. β-actin was used as a loading control.
# [2] = tested on: EA.hy926 cells; experiment: Peptide stability study in EA.hy926 endothelial cells, LCMS (Example 4); type: in vitro ADME; conditions: peptide 9 μM, Opti-MEM
# Description: SEQ ID NO:2 was prepared as a C-terminal amidated analogue of SEQ ID NO:1. The stability of SEQ ID NO:1 and SEQ ID NO:2 was assessed in HEK293 and EA.hy926 cells grown in culture and their break down was monitored by LCMS over 60 min using the following procedure.
# HEK293 (passage 24) or Ea.hy926 (passage 37) were seeded into tissue-culture-grade 96-well plates at a density of 20,000 cells/well. After 24 hr, cells were washed with PBS and replaced with Opti-MEM reduced serum media containing SEQ ID NO:1 or SEQ ID NO:2 (9 μM). Aliquots of equal volume were taken at T=0 and 60 min. SEQ ID NO:2 was added to control wells having media (no cells) only. Samples were immediately acidified in 0.1% TFA, snap frozen in dry ice and stored in −80° C. until analysed by LCMS.
# Samples were analyzed by LC-MS/MS on a Shimadzu Nexera uHPLC (Japan) coupled to a Triple Tof 5600 mass spectrometer (ABSCIEX, Canada) equipped with a duo electrospray ion source. One μL of each extract was injected onto a 2.1 mm×100 mm Zorbax C18 1.8 um column (Agilent) at 200 μL/min. […] SEQ ID NO:1 and SEQ ID NO:2 were quantified using the […] doubly charged molecular ion from m/z 510.270 to 510.325. The data was acquired using Analyst TF 1.6 and quantification was carried out using MultiQuant 2.1.1 software (ABSCIEX, Canada).
substance,measurement,setting,value
"H-SLFELGKMIL-NH2 [SEQ ID NO:2, H2N-SLFELGKMIL-NH2]",post treatment blood glucose compared with vehicle,[1]; ND mice,similar
same,urine volume per day,"[1]; ND mice, before and after treatment",the same before or after treatment
same,kidney:bodyweight ratio,"[1]; ND mice, peptide or vehicle",remained the same
same,urinary albumin,"[1]; ND mice, peptide or vehicle",remained the same
same,"kidney:bodyweight ratio, increase compared with STZ mice treated with vehicle",[1]; STZ mice,even more
same,kidney IL-6 expression compared with vehicle treated STZ mice,"[1]; STZ mice sacrificed one month after treatment, western blot",lower
same,post treatment blood glucose compared with vehicle,[1]; STZ mice,marginally lower
same,urinary albumin,"[1]; STZ mice, 2 and 3 months post treatment, with either vehicle or peptide",increased
same,renal cortical fibrosis compared to STZ mice treated with vehicle,"[1]; STZ mice, Masson's trichrome staining",tendency to be lower
same,urine volume per day,"[1]; STZ mice, whether treated with peptide or vehicle",increased urine volume per day
same,relative amount remaining in the medium of endothelial cells at 60 min,[2],26%±5%
